Source: patent publication US7125902B2, “Methods, compounds, and diagnostics for cancer treatment” (priority 2004, dated 2006)

What was measured:
Male ICR mice = test: Acute toxicity study, determination of LD50 values; assay type: in vivo; conditions: for LD50 / Survival at 2,000 mg/Kg: male ICR mice; for LD50: single intraperitoneal injection, observed for three days; for Acute symptoms observed: mouse, in vivo, ip; for Survival at 2,000 mg/Kg: i.p., 2,000 mg/Kg, three-day observation
Protocol: (§1) Leflunomide, its metabolite (A77 1726), and several isoxazole derivatives were chosen for the acute toxicity study. Male ICR mice were used for the intraperitoneal injection of each compound at different doses according to the following procedure: Small male ICR mice are chosen, each weighing 17–23 grams. They are equally classified at random into individual groups, 3–5 mice per group. A predetermined dose of each selected compound in minimum DMSO/liquid paraffin is injected once intraperitoneally to mice in each group. Toxic reaction is observed for three days, then the acute half lethal dose (LD50) is determined.

[1] = tested on: C6 (Rat Glialtumor Cell or CCL-107) Cell Line; test: MTT colorimetric assay for cellular viability on C6 cells; assay type: cell-based; conditions: 48-h incubation
Protocol: Cell lines (C6 and Hep G2) were obtained from the Bioresource Collection and Research Center. All cell culture media and supplements were purchased from Invitrogen, Co. (GIBCO™, Gland Island, N.Y.) unless otherwise specified. All cells were grown in a humid atmosphere of 95% air and 5% CO2 at 37° C. Cell lines were maintained under standard conditions in culture media recommended by the American Type Culture Collection (ATCC), unless otherwise specified. C6 cells were grown in 82.5% Ham's F-10 medium, 15% horse serum and 2.5% FBS. Hep G2 were cultured in 90% MEM (Eagle) with non-essential amino acids and Earle's BSS amd 10% FBS.
All compounds were tested for inhibition of anchorage-dependent tumor cell growth using MTT assay. All compounds were individually solubilized in DMSO and diluted into appropriate growth medium at 2-fold desired final assay concentration. In assays, cells were seeded into 96-well plates and allowed to adhere for 24 h before drugs were introduced. Following a 48-h incubation, compounds and medium were removed by flicking, and each well was treated with 100 μl of 500 μg/ml MTT [3-(4,5-dimethylthiazol-2-yl)-2,5-diphenyltetrazolium bromide] in culture medium. Following a 4-h incubation period to allow metabolism of MTT by mitochondrial dehydrogenases of viable cells to form an insoluble formazan product, the crystals were dissolved in 100 μL of acid-SDS (0.01 N HCl in 10% SDS) by incubating the plate overnight. Absorbance, as a measure of cell viability, was read the following day in an ELISA plate reader at a wavelength of 550 nm. IC50 values were obtained by a linear regression analysis of percentage absorbance vs. log drug concentration.

[2] = Acute toxicity study, determination of LD50 values; assay type: in vivo; conditions: male, ICR, mouse, in vivo, ip
Protocol: as §1

[3] = tested on: HT29 (adenocarcinoma of the colon); test: SRB cell proliferation assay on HT-29 cells; assay type: cell-based, human; conditions: for Cell viability, Reading (avg of 3): HT-29, SRB reading at 515 nm, 5d exposure
Protocol: The cell lines used were HT29 (adenocarcinoma of the colon). The tumor cells were grown at 37° C. in a humidified atmosphere (5% CO2) as monolayer cultures in RPMI 1640 medium supplemented with 10% FCS. Cells were trypsinized upon passage and maintained routinely.
UTL-5b and UTL-5 were dissolved in DMSO as 4 mM stock solutions and then further diluted in 1% carboxymethyl cellulose.
The SRB assay is routinely employed to measure cell proliferation by the US-NCI 60 cell line screen. Exponentially growing cells were harvested by trypsination, counted and seeded into 96 well plates (2.000 cells/well). […] Total protein mass was determined after 5d of continuous drug exposure by addition of Sulforhodamine B (0.4%) solution. Readings were read at 515 nm, as cell viability, and IC50 values were estimated based on the results.

Structure (SMILES) | LD50 (Male ICR mice) | Acute symptoms observed (Male ICR mice) | IC50 [1] [µM] | other results
C/C(O)=C(\C#N)C(=O)Nc1ccc(C(F)(F)F)cc1 [A77 1726, reference compound] | 200 mg/kg | Cyanosis and deep necrosis | 0.159 | –
Cc1oncc1C(=O)Nc1ccc(C(F)(F)F)cc1 [Leflunomide, N-(4-trifluoromethylphenyl)-4-carboxamidyl-5-methylisoxazole, reference compound] | – | Cyanosis and deep necrosis | – | LD50 at 3 days [2]: 250 mg/kg; IC50 ([1]; Rattus norvegicus): 0.162 µM
Cc1cc(C(=O)Nc2ccccc2)no1 [UTL-5a] | >2,000 mg/Kg | agitation | 1.37 | Survival at 2,000 mg/Kg (Male ICR mice): all mice were alive
Cc1cc(C(=O)Nc2cccc(Cl)c2)no1 [UTL-5c] | – | – | 0.163 | –
Cc1cc(C(=O)Nc2ccc(Cl)cc2)no1 [UTL-5d] | 1,800 mg/Kg | – | 0.81 | Activity in human colon cancer cell line HT29 (in words) ([3]; HT29, SRB assay): very good activity; Cell viability, Reading (avg of 3) ([3]; Conc. 0.001 μM): 1.238; Cell viability, Reading (avg of 3) ([3]; Conc. 0.002 μM): 1.014; Cell viability, Reading (avg of 3) ([3]; Conc. 0.01 μM): 0.886; Cell viability, Reading (avg of 3) ([3]; Conc. 0.05 μM): 0.914; Cell viability, Reading (avg of 3) ([3]; Conc. 0.1 μM): 0.864; Cell viability, Reading (avg of 3) ([3]; Conc. 0.5 μM): 0.893; Cell viability, Reading (avg of 3) ([3]; Conc. 1 μM): 0.436; Cell viability, Reading (avg of 3) ([3]; Conc. 10 μM): 0.314; Cell viability, Reading (avg of 3) ([3]; Conc. 50 μM): 0.164; Cell viability, Reading (avg of 3) ([3]; Conc. 100 μM): 0.13; IC50 ([3]; HT-29 cells, SRB assay, 5d continuous exposure, estimated from readings): 0.7 µM
Cc1cc(C(=O)Nc2cccc(C(F)(F)F)c2)no1 [UTL-5e] | – | – | 0.2 | –
Cc1cc(C(=O)Nc2ccc(C(F)(F)F)cc2)no1 [UTL-5f] | – | – | 0.17 | –
Cc1cc(C(=O)Nc2ccc(Cl)cc2Cl)no1 [UTL-5g] | >2,000 mg/Kg | agitation | 0.18 | Survival at 2,000 mg/Kg (Male ICR mice): all mice were alive
COc1ccc(NC(=O)c2cc(C)on2)cc1 [UTL-5h] | – | – | 0.35 | –
COc1cc(NC(=O)c2cc(C)on2)cc(OC)c1OC [UTL-5i] | – | – | 1.18 | –
Cc1cc(C(=O)Nc2ccc(C(=O)O)cc2)no1 [UTL-5j] | >2,000 mg/Kg | agitation | 0.19 | Survival at 2,000 mg/Kg (Male ICR mice): all mice were alive
Cc1cc(C(=O)Nc2ccc(F)cc2)no1 [UTL-5k] | – | – | > 1000 | –
CCOC(=O)CC[C@H](NC(=O)c1ccc(NC(=O)c2cc(C)on2)cc1)C(=O)OCC [UTL-5l] | – | – | 0.16 | –
